{"source": "patent US10654867B2", "about": "(Genentech, Inc., priority 2016, dated 2020)", "target": "T1, estrogen receptor alpha (ESR1) in MCF7 breast cancer cells (Homo sapiens, UniProt P03372)", "T1 sequence (P03372 1-595)": "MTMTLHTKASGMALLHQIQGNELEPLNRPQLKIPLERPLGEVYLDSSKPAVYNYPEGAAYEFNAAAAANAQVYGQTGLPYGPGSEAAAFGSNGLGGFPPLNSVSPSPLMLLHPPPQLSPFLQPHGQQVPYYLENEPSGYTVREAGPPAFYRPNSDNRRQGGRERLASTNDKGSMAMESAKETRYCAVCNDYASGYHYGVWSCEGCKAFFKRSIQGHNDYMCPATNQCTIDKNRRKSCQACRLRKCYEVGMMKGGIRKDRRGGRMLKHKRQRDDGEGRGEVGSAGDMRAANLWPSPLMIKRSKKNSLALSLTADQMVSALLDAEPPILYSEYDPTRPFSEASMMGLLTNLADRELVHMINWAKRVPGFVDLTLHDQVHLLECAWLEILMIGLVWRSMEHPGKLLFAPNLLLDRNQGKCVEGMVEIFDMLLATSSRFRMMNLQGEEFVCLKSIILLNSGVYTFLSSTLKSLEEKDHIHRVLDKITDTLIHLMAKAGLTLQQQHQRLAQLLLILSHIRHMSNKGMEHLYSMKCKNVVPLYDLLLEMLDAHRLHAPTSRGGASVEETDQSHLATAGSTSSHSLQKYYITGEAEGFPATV", "experiment": "Breast Cancer Cell ERa High Content Fluorescence Imaging Degradation Assay (ER-alpha MCF7 HCS)", "type": "cell-based", "design": "endogenous in cells; host or cells: MCF7 breast cancer cells", "conditions": "4 hours, plateau of the maximal effect, DMSO and fulvestrant define 0% and 100% change in ESR1, Table 1a", "procedure": "All of the exemplary Formula I, II, and III compounds in Tables 1a and 1b were made and characterized by LCMS [M+H]^+ (liquid chromatography mass spectroscopy) with detection of parent ion. All of the exemplary Formula I, II, and III compounds in Tables 1a and 1b were tested for binding to ERa (Estrogen Receptor alpha) and biological activity according to the assays, protocols, and procedures of Examples 901-907. ER-alpha MCF7 HCS Sinf (%) values in Tables 1a and 1b were measured by the Breast Cancer Cell ERa High Content Fluorescence Imaging Degradation Assay of Example 901. ER-alpha MCF7 HCS EC50 (μM) values in Tables 1a and 1b were measured by the in vitro cell proliferation assays described in Examples 902 and 903. The rat uterine wet weight assays of Examples 906 and 907 allow rapid determination of compound antagonist activity in an ER responsive tissue (immature rat uterus) while competing against the native ER ligand estradiol, i.e. antagonist mode (Ashby, J.; et al (1997) Regulatory toxicology and pharmacology: RTP, 25 (3):226-31). Exemplary Formula I, II, and III compounds in Tables 1a and 1b have the following structures, corresponding names (ChemBioDraw, Version 12.0.2, CambridgeSoft Corp., Cambridge Mass.), and biological activity. Where more than one name is associated with a Formula I, II, and III compound or intermediate, the chemical structure shall define the compound.\nMCF7 breast cancer cells were seeded on day 1 at a density of 10,000 cells per well in 384 well poly-lysine coated tissue culture plate (Greiner # T-3101-4), in 50 μL/well RPMI (phenol red free), 10% FBS (Charcoal stripped), containing L-glutamine. On day 2, compounds were prepared at 2 compound source concentrations: 100 μM and 1 μM (ultimately to give 2 overlapping titration curves), in a Labcyte low dead volume plate, 10 μL/well, and 10 μL of DMSO in designated wells for backfill, and 5 μM Fulvestrant (control compound) in designated wells. Compounds and controls were dispensed using a Labcyte Echo acoustic dispenser to dispense compounds with a predefined serial dilution (1.8×, 10 point, in duplicate) and appropriate backfill and control compounds (final total volume transferred was 417.5 nL and compound dispense volume ranges from 2.5 nL to 417.5 nL; 0.84% DMSO (v/v) final), ultimately producing a concentration range from 0.05 nM to 835 nM. Cell plates were incubated at 37° C., for 4 hours. Fixation and permeabilization were carried out using a Biotek EL406 plate washer and dispenser as follows. Cells were fixed by addition of 15 μL of 16% paraformaldehyde (Electron Microscopy Sciences #15710-S) directly to the 50 μL cell culture medium in each well using the peristaltic pump 5 μL cassette on a Biotek EL406 (final concentration of formaldehyde was 3.7% w/v). Samples were incubated 30 minutes. Well contents was aspirated and 50 μL/well of Phosphate Buffered Saline (PBS) containing 0.5% w/v bovine serum albumen, 0.5% v/v Triton X-100 (Antibody Dilution Buffer) was added to each well. Samples were incubated for 30 minutes. Well contents were aspirated and washed 3 times with 100 μL/well of PBS. Immunofluorescence staining of estrogen receptor alpha (ESR1) was carried out using a Biotek EL406 plate washer and dispenser as follows. The well supernatant was aspirated from the wells and 25 μL/well of anti-ESR1 mAb (F10) (Santa Cruz sc-8002) diluted 1:1000 in Antibody Dilution Buffer was dispensed. Samples were incubated for 2 hours at room temperature. Samples were washed 4 times with 100 μL/well of PBS. 25 uL (microliters)/well of secondary antibody solution (Alexafluor 488 conjugate anti-mouse IgG (LifeTechnologies # A21202) diluted 1:1000 and Hoechst 33342 1 μg/ml diluted in Antibody Dilution Buffer) were dispensed into each well. Samples were incubated for 2 hours at room temperature. Samples were washed 3 times with 100 μL/well of PBS using a Biotek EL406. Quantitative fluorescence imaging of ESR1 was carried out using a Cellomics Arrayscan V (Thermo). […]"}
{"compound": "CC(C)(F)C(=O)N1CCCc2c([nH]c3ccccc23)[C@H]1c1c(F)cc(OCCN2CC(CF)C2)cc1F", "note": "[Example 106, (R)-1-(1-(2,6-difluoro-4-(2-(3-(fluoromethyl)azetidin-1-yl)ethoxy)phenyl)-3,4,5,10-tetrahydroazepino[3,4-b]indol-2(1H)-yl)-2-fluoro-2-methylpropan-1-one]", "values": [{"measurement": "ER-alpha MCF7HCS Sinf", "value": "−35", "unit": "%"}]}
{"compound": "C[C@@H]1Cn2c(cc3ccccc32)[C@@H](c2c(F)cc(OC3CN(CCCF)C3)cc2F)N1CC(C)(C)F", "note": "[Example 110, (1R,3R)-1-(2,6-Difluoro-4-((1-(3-fluoropropyl)azetidin-3-yl)oxy)phenyl)-2-(2-fluoro-2-methylpropyl)-3-methyl-1,2,3,4-tetrahydropyrazino[1,2-a]indole]", "values": [{"measurement": "ER-alpha MCF7HCS Sinf", "value": "−100", "unit": "%"}]}
{"compound": "C[C@@H]1Cc2c([nH]c3ccccc23)[C@H]2c3c(F)cc(OCCN4CC(CF)C4)cc3OCC(F)(F)CN21", "note": "[Example 112, (10R,16bR)-1,7,7-Trifluoro-3-(2-(3-(fluoromethyl)azetidin-1-yl)ethoxy)-10-methyl-7,8,10,11,16,16b-hexahydro-6H-benzo[2′,3′][1,5]oxazocino[5′,4′:1,2]pyrido[3,4-b]indole]", "values": [{"measurement": "ER-alpha MCF7HCS Sinf", "value": "−50", "unit": "%"}]}
{"compound": "C[C@@H]1Cc2c([nH]c3ccccc23)[C@]2(CCc3cc(OCCN4CC(CF)C4)ccc32)N1CC(C)(C)F", "note": "[Example 113, (1R,3′R)-2′-(2-fluoro-2-methylpropyl)-5-(2-(3-(fluoromethyl)azetidin-1-yl)ethoxy)-3′-methyl-2,2′,3,3′,4′,9′-hexahydrospiro[indene-1,1′-pyrido[3,4-b]indole]]", "values": [{"measurement": "ER-alpha MCF7HCS Sinf", "value": "−94.7", "unit": "%"}]}
{"compound": "C[C@@H]1Cc2c([nH]c3ccccc23)[C@]2(CCc3cc(OCCN4CC(CF)C4)ccc32)N1CC(F)(F)F", "note": "[Example 114, (1R,3′R)-5-(2-(3-(fluoromethyl)azetidin-1-yl)ethoxy)-3′-methyl-2′-(2,2,2-trifluoroethyl)-2,2′,3,3′,4′,9′-hexahydrospiro [indene-1,1′-pyrido [3,4-b]indole]]", "values": [{"measurement": "ER-alpha MCF7HCS Sinf", "value": "−96.6", "unit": "%"}]}
{"compound": "C[C@@H]1Cc2c([nH]c3ccccc23)[C@@]2(CCc3cc(OCCN4CC(CF)C4)ccc32)N1CC(F)(F)F", "note": "[Example 115, (1S,3′R)-5-(2-(3-(fluoromethyl)azetidin-1-yl)ethoxy)-3′-methyl-2′-(2,2,2-trifluoroethyl)-2,2′,3,3′,4′,9′-hexahydrospiro [indene-1,1′-pyrido [3,4-b]indole]]", "values": [{"measurement": "ER-alpha MCF7HCS Sinf", "value": "−98", "unit": "%"}]}
{"compound": "C[C@@H]1CCc2c([nH]c3ccccc23)[C@@H](c2c(F)cc(OCCN3CC(CF)C3)cc2F)N1CC(C)(C)F", "note": "[Example 116, (1R,3R)-1-(2,6-difluoro-4-(2-(3-(fluoromethyl)azetidin-1-yl)ethoxy)phenyl)-2-(2-fluoro-2-methylpropyl)-3-methyl-1,2,3,4,5,10-hexahydroazepino[3,4-b]indole]", "values": [{"measurement": "ER-alpha MCF7HCS Sinf", "value": "−93.5", "unit": "%"}]}
{"compound": "C[C@@](F)(CO)CN1CCCc2c([nH]c3ccccc23)[C@H]1c1c(F)cc(OCCN2CC(CF)C2)cc1F", "note": "[Example 117, (S)-3-((R)-1-(2,6-difluoro-4-(2-(3-(fluoromethyl)azetidin-1-yl)ethoxy)phenyl)-3,4,5,10-tetrahydroazepino[3,4-b]indol-2(1H)-yl)-2-fluoro-2-methylpropan-1-ol]", "values": [{"measurement": "ER-alpha MCF7HCS Sinf", "value": "−93.8", "unit": "%"}]}
{"compound": "C[C@](F)(CO)CN1CCCc2c([nH]c3ccccc23)[C@H]1c1c(F)cc(OCCN2CC(CF)C2)cc1F", "note": "[Example 118, (R)-3-((R)-1-(2,6-difluoro-4-(2-(3-(fluoromethyl)azetidin-1-yl)ethoxy)phenyl)-3,4,5,10-tetrahydroazepino[3,4-b]indol-2(1H)-yl)-2-fluoro-2-methylpropan-1-ol]", "values": [{"measurement": "ER-alpha MCF7HCS Sinf", "value": "−95.9", "unit": "%"}]}
{"compound": "CC(F)(CO)CN1CCCc2c([nH]c3ccccc23)[C@@H]1c1c(F)cc(OCCN2CC(CF)C2)cc1F", "note": "(stereo partly drawn) [Example 119, 3-((S)-1-(2,6-difluoro-4-(2-(3-(fluoromethyl)azetidin-1-yl)ethoxy)phenyl)-3,4,5,10-tetrahydroazepino[3,4-b]indol-2(1H)-yl)-2-fluoro-2-methylpropan-1-ol]", "values": [{"measurement": "ER-alpha MCF7HCS Sinf", "value": "−95.6", "unit": "%"}]}
{"compound": "C[C@@H]1Cn2c(cc3ccccc32)[C@@H](c2c(F)cc(OC3CN(CCCF)C3)cc2F)N1CC(C)(F)CO", "note": "(stereo partly drawn) [Example 122, 3-((1R,3R)-1-(2,6-Difluoro-4-((1-(3-fluoropropyl)azetidin-3-yl)oxy)phenyl)-3-methyl-3,4-dihydropyrazino[1,2-a]indol-2(1H)-yl)-2-fluoro-2-methylpropan-1-ol]", "values": [{"measurement": "ER-alpha MCF7HCS Sinf", "value": "−97", "unit": "%"}]}
{"compound": "C[C@@H]1CCN(CC(C)(C)F)[C@H](c2c(F)cc(OCCN3CC(CF)C3)cc2F)c2[nH]c3ccccc3c21", "note": "[Example 123, (1R,5R)-1-(2,6-difluoro-4-(2-(3-(fluoromethyl)azetidin-1-yl)ethoxy)phenyl)-2-(2-fluoro-2-methylpropyl)-5-methyl-1,2,3,4,5,10-hexahydroazepino[3,4-b]indole]", "values": [{"measurement": "ER-alpha MCF7HCS Sinf", "value": "−96.9", "unit": "%"}]}
{"compound": "C[C@H]1CCN(CC(C)(C)F)[C@@H](c2c(F)cc(OCCN3CC(CF)C3)cc2F)c2[nH]c3ccccc3c21", "note": "[Example 124, (1S,5S)-1-(2,6-difluoro-4-(2-(3-(fluoromethyl)azetidin-1-yl)ethoxy)phenyl)-2-(2-fluoro-2-methylpropyl)-5-methyl-1,2,3,4,5,10-hexahydroazepino[3,4-b]indole]", "values": [{"measurement": "ER-alpha MCF7HCS Sinf", "value": "−75", "unit": "%"}]}
{"compound": "C[C@H]1CCN(CC(C)(C)F)[C@H](c2c(F)cc(OCCN3CC(CF)C3)cc2F)c2[nH]c3ccccc3c21", "note": "[Example 125, (1R,5S)-1-(2,6-difluoro-4-(2-(3-(fluoromethyl)azetidin-1-yl)ethoxy)phenyl)-2-(2-fluoro-2-methylpropyl)-5-methyl-1,2,3,4,5,10-hexahydroazepino[3,4-b]indole]", "values": [{"measurement": "ER-alpha MCF7HCS Sinf", "value": "−101", "unit": "%"}]}
{"compound": "C[C@@H]1CCN(CC(C)(C)F)[C@@H](c2c(F)cc(OCCN3CC(CF)C3)cc2F)c2[nH]c3ccccc3c21", "note": "[Example 126, (1S,5R)-1-(2,6-difluoro-4-(2-(3-(fluoromethyl)azetidin-1-yl)ethoxy)phenyl)-2-(2-fluoro-2-methylpropyl)-5-methyl-1,2,3,4,5,10-hexahydroazepino[3,4-b]indole]", "values": [{"measurement": "ER-alpha MCF7HCS Sinf", "value": "−50", "unit": "%"}]}
